Results from publication PMC7581251 (ACS Omega, 2020).

What was measured:
[1] = test system: GSKβ; settings: cited from earlier work
[2] = cohort of diabetic individuals ref 74; cited from earlier work
[3] = test system: CYP2D6; settings: in vitro ref 75; cited from earlier work
[4] = molecular target: T1, GSK3α (Homo sapiens, UniProt P49840); settings: cited from earlier work
[5] = molecular target: T2, GSK3β (Homo sapiens, UniProt P49841); experiment: Promega ADP-Glo kinase assay, GSK3β inhibition; type: biochemical; settings: for Hill slope GSK3β (ADP-Glo): four-parameter non-linear regression; for inhibition at 100 µM: read-out: Percent Inhibition of GSK3β, 100 μM, single point, n = 3; for IC50: IC50 GSK3β (ADP-Glo), 10-point three-fold dilution from 100 μM, n = 2
T2 sequence (P49841 whole entry): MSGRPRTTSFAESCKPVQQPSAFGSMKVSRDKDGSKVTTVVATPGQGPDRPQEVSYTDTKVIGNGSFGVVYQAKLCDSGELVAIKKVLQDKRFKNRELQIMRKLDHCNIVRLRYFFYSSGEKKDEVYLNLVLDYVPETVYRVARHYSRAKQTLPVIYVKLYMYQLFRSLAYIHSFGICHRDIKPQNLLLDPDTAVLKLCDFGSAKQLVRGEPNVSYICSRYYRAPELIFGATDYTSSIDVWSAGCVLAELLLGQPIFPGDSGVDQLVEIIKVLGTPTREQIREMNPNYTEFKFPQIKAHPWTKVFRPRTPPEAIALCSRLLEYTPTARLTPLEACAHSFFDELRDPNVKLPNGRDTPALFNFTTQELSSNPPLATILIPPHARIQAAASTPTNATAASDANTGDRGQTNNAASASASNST

[6] = molecular target: T2, GSK3β; experiment: Z'LYTE kinase assay; type: biochemical; settings: for Hill slope GSK3β (Z'LYTE): four-parameter non-linear regression
[7] = molecular target: T1, GSK3α; experiment: Z'LYTE kinase assay; type: biochemical; settings: for IC50: IC50 GSK3α (Z'LYTE), values of main text and Table S3; for Selectivity GSK3β versus GSK3α: from Z'LYTE IC50 values

T1 sequence (P49840 whole entry): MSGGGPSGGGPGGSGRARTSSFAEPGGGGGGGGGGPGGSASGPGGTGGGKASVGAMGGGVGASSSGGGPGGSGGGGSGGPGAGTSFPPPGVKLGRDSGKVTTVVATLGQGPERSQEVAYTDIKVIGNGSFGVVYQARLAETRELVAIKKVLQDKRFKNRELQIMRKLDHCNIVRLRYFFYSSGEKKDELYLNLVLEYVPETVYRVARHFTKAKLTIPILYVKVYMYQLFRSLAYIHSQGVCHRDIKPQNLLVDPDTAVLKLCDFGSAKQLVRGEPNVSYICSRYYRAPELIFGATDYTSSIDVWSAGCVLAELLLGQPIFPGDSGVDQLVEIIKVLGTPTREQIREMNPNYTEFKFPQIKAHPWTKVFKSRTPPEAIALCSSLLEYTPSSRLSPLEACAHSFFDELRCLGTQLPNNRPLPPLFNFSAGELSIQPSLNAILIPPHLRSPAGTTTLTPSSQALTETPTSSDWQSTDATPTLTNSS

Hill slope GSK3β (ADP-Glo) [5]	inhibition at 100 µM [5]	Hill slope GSK3β (Z'LYTE) [6]	IC50 [7]	Selectivity GSK3β versus GSK3α [7]	IC50 [5]	IC50 [6]	SMILES	Activity for GSKβ in published kinase screening [1]	Clinical safety [2]	Interaction with CYP2D6 [3]	Activity for GSK3α in published kinase screening [4]
−0.68	96%	0.98					CN(C)C[C@@H]1CCn2cc(c3ccccc32)C2=C(C(=O)NC2=O)c2cn(c3ccccc23)CCO1 [Ruboxistaurin]	micromolar activity	safe up to 32 mg/day for 4 years	potent interactions	micromolar activity
	69%						COC(=O)C1=C(C)NC(C)=C(C(=O)OC)C1c1ccccc1[N+](=O)[O-] [Nifedipine]				
−0.68	> 70%	1.10	60.8 µM	non-selective	12.1 µM	54.8 µM	c1ccc2[nH]c(-c3cscn3)nc2c1 [Thiabendazole]				
−0.80	> 70%	1.26	4.4 µM	non-selective	8.5 µM	5 µM	CC(=O)Nc1ncc([N+](=O)[O-])s1 [Nithiamide]				
